{"source": "patent US20120135923A1", "about": "“Use of Melanocortins to Treat Dyslipidemia” (IPSEN PHARMA, S.A.S., priority 2009, published 2012)", "key": {"hMC5-R [1]": {"target": "T1, hMC5-R (Homo sapiens, UniProt P33032)", "T1 construct": "expressed in transfected cells; host or cells: CHO-K1", "T1 sequence (P33032 whole entry)": "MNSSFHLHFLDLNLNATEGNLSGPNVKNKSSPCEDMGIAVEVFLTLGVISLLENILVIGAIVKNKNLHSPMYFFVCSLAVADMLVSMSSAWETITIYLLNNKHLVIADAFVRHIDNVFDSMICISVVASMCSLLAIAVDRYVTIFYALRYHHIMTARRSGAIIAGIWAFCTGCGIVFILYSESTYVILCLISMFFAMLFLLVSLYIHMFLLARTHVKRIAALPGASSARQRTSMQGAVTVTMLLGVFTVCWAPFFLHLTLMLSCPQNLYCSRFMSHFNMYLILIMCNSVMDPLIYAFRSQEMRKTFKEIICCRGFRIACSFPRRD", "test": "Radioligand binding assay, [125I]-NDP-α-MSH competition, CHO-K1 membranes", "details": "Ki hMC5-R, Table 5"}, "hMC5-R [2]": {"target": "T1, hMC5-R", "test": "cyclic AMP bioassay (ECL) in CHO-K1 cells", "type": "cell-based"}, "obese Zucker rats [3]": {"test_system": "obese Zucker rats", "test": "Body weight and food intake, 7 day sc infusion", "type": "in vivo, rat", "details": "for decrease in body weight gain: day 7, vs vehicle; for decrease in food intake: end of 7 day treatment", "experimental": "(§1) The dosage forms were prepared prior to the start of the experiment and used to fill the pumps under sterile conditions. Pumps were primed overnight at 37° C. in sterile saline and implanted on the starting day of the experiment.\nThe Zucker rats are obese due to a spontaneous mutation in the […].\n(§2) Three groups of eight obese male Zucker rats (350-400 g) were housed in individual cages and maintained under 12:12 hour light:dark conditions with both food (Harlan Teklad Sterilized Rodent Diet LM-485) and water available ad libitum.\n(§3) On the morning of day 1, the rats were anesthetized using chlorohydrate anesthetic and implanted with a sub-cutaneous infusion pump (Alzet® 2002) just under the skin. […] Individual body weight and food and water consumption were measured daily at 0800 hours for 7 days."}, "obese Zucker rats [4]": {"test_system": "obese Zucker rats", "test": "Intravenous glucose tolerance test after 7 day sc infusion", "type": "in vivo, rat", "experimental": "as §1, §2, §3\n(§4) On day 7 a right atrial cannula was implanted in the jugular vein under cholorohydrate anesthesia. The animals were fasted overnight and an intravenous (iv) glucose tolerance test was performed. Glucose (1 g/kg) was injected at time 0 and blood samples were taken via the cannula at 0, 2.5, 5, 10, 20 and 40 minutes post-injection. Plasma was collected and assayed for glucose (Glucose (Trinder) Assay; Diagnostic Chemicals Limited, Charlottetown, P.E.I., Canada; Cat #220-32) and insulin (Mercodia Rat Insulin ELISA; Mercodia, Uppsala, Sweden; ALPCO 10-1124-10) content. At the conclusion of the glucose tolerance test and additional serum samples were collected and assayed for triglycerides (Triglyceride L-Type TG H kit: Wako Diagnostics, Richmond, Va.), cholesterol (Cholesterol E assay kit: Wako Diagnostics, Richmond, Va.) and free fatty acids (Fatty Acid HR series NEFA-HR2 kit: Wako Diagnostics, Richmond, Va.)."}, "obese Zucker rats [5]": {"test_system": "obese Zucker rats", "test": "Serum triglycerides, cholesterol and free fatty acids after 7 day sc infusion", "type": "in vivo, rat", "details": "50 and 500 nmole/kg/day sc infusion", "experimental": "as §1, §2, §3, §4"}}, "note": "Entries after “also recorded” stand apart in the source; their conditions may differ.", "data": [{"compound": "CC(=O)N[C@@H](CCCNC(=N)N)C(=O)N[C@H]1CSSC[C@@H](C(N)=O)NC(=O)[C@H](Cc2c[nH]c3ccccc23)NC(=O)[C@H](CCCNC(=N)N)NC(=O)[C@@H](Cc2ccccc2)NC(=O)[C@H](Cc2c[nH]cn2)NC(=O)[C@@H](C)NC1=O", "note": "[Compound A, Ac-Arg-c(Cys-D-Ala-His-D-Phe-Arg-Trp-Cys)-NH2]", "values": [{"measurement": "Ki", "setting": "hMC5-R [1]", "result": 0.43, "unit": "µM"}, {"measurement": "EC50", "setting": "hMC5-R [2]", "result": 1.63, "unit": "µM"}, {"measurement": "decrease in body weight gain", "setting": "obese Zucker rats [3]; 50 nmole/kg/day sc infusion", "result": 35, "unit": "g"}, {"measurement": "decrease in food intake", "setting": "obese Zucker rats [3]; 50 nmole/kg/day sc infusion", "result": 60, "unit": "g"}, {"measurement": "decrease in body weight gain", "setting": "obese Zucker rats [3]; 500 nmole/kg/day sc infusion", "result": 60, "unit": "g"}, {"measurement": "decrease in food intake", "setting": "obese Zucker rats [3]; 500 nmole/kg/day sc infusion", "result": 100, "unit": "g"}, {"measurement": "basal fasted plasma glucose", "setting": "obese Zucker rats [4]; 500 nmole/kg/day sc infusion, fasted overnight", "result": "decreased"}, {"measurement": "plasma glucose levels after a glucose challenge", "setting": "obese Zucker rats [4]; 50 and 500 nmole/kg/day, glucose 1 g/kg iv", "result": "decreased"}, {"measurement": "amount of insulin required to clear the glucose challenge", "setting": "obese Zucker rats [4]; 7 day infusion, glucose tolerance test", "result": "decreased"}, {"measurement": "serum cholesterol", "setting": "obese Zucker rats [5]", "result": "Dose-related decrease"}, {"measurement": "serum free fatty acids", "setting": "obese Zucker rats [5]", "result": "dose-related decreases; also recorded: Decrease"}, {"measurement": "serum triglycerides", "setting": "obese Zucker rats [5]", "result": "Dose-related decrease"}]}]}
